Measurements: publication PMC9396645 (Frontiers in Chemistry, 2022)
Read-outs that look alike come from different tables or passages of the source. One block for each compound: values may come before it.

How the values were obtained:
C4-2 cells = experiment: Internalization efficiency / specific cell uptake in C4-2 cells; assay type: cell-based, human
Method: The specific internalization ratio was determinated in 24-well plates. The plates were previously coated with 0.1% poly-L-lysine in PBS for 20 min and washed with PBS once. C4-2 cells (10^5 cells per analysis) were added to each well and equilibrated overnight. The cells were incubated for 45 min with 250 µL of a 30 nM solution of the ^68Ga-labeled compounds either in a water bath at 37°C or on ice. The PSMA-receptor-blocking agent 2-(phosphonomethyl)pentanedioic acid (2-PMPA; 500 μM; Axxora) was used to verify the specificity of the cellular uptake of the novel compounds. The cells were washed thrice (using 1 ml of ice-cold PBS), followed by an incubation with 0.5 ml of a glycine solution (50 mM in HCl at a pH of 2.8) for 5 min, washed once with 1 ml of ice-cold PBS, and finally lysed with 0.5 ml of 0.3 M NaOH. The lysate was collected, and the radioactivity was measured in a gamma-counter. Triplicate measurements were performed for all experiments.

[1] = system: C4-2 tumor bearing BALB/c nu/nu mice; experiment: Small-animal PET imaging in C4-2 tumor bearing mice; assay type: in vivo, mouse; settings: mean SUV from PET, 2 h p.i.
Excerpt: (§1) Athymic male nude mice (BALB/c nu/nu) were purchased from Charles River at 4‒5 weeks of age (19–23 g). The mice were kept under pathogen-free conditions for 1 week prior to the study. The mice had free access to water and food and were housed with a 12-h/12-h light/dark cycle. The xenografts required for positron emission tomography (PET) imaging and biodistribution studies were obtained by inoculation of 5 × 10^7 C4-2 cells in 50% Matrigel in Opti-MEM I (1 ×) medium. For this purpose, the mice were anesthetized with 2% sevoflurane, and inoculation was performed subcutaneously on the right trunk. When the size of the tumor was approximately 1 cm^3, the studies were performed.
For small-animal PET imaging, the different ^68Ga-labeled PSMA ligands (0.5 nmol, 20 MBq in approximately 100 µL 0.9% saline) were injected into C4-2 tumor bearing mice. The dynamic PET was recorded in a small animal PET scanner (Siemens Inveon D-PET). The standardized uptake values (SUVs) were obtained from conventional (non-dynamic) PET images. The formula for the SUV was SUV=activity in ROI (Bq/ml) × animal weight (g)/injected dose(Bq)
Manual delineation of the respective appropriate whole organ (heart, kidneys, bladder, tumor, with an approximate volume of 100–500 µL) yielded the volumes of interest (VOIs). For this purpose, whole organs or parts of the organ/tissue (liver and muscle) were used. The images were reconstructed based on the procedure: OSEM 3D/SP MAP with 16 subsets, two iterations, and an image x-y size: 256, image z size: 161. The data were not modified with a post-processing filter. Analysis of the images and time-activity curves (TACs) was conducted on the Inveon™ Acquisition Workplace (IAW) from Siemens IRW 4.1. […] […] The mean SUVs were plotted over time in order to compare the different radiotracers.

prostate cancer patients [2] = system: prostate cancer patients; set-up: method as in earlier work; settings: patients PET/CT, ref Afshar-Oromieh et al. (2015a) and Afshar-Oromieh et al. (2015b), cited from earlier work
prostate cancer patients [3] = experiment: PSMA-PET/CT of prostate cancer patients; assay type: in vivo, human; settings: patient PET/CT, 20 nmol
Method: Diagnostic PSMA-PET/computed tomography (CT) examinations were performed 1 and 3 h after antecubital injection of 339 MBq/20 nmol ^68Ga-CA028 or 295 MBq/20 nmol ^68Ga-CA030 per patient, respectively. The method for assessing the biodistribution was performed as previously described by Afshar-Oromieh et al. ([Afshar-Oromieh et al., 2015b]). Applying the clinical standard software Syngo (Siemens), which was used to define the VOIs in the PET images, the activity distributions of the source organs was determined. This reference ([Afshar-Oromieh et al., 2015b]) was also used as a standard of reference for ^68Ga-PSMA-617 (Table 3).

[4] = system: C4-2 tumor bearing BALB/c nu/nu mice; experiment: Biodistribution (organ distribution) in C4-2 tumor-bearing mice; assay type: in vivo, mouse; settings: tumor bearing mice, n = 3
Excerpt: as §1
Based on the results of the PET imaging, ^68Ga-CA028 and ^68Ga-CA030, the most promising compounds, were chosen for biodistribution studies in C4-2 tumor-bearing mice. The labeled compound (0.05 nmol, 20 MBq) was administered to the mice via tail vein injection. Animals were sacrificed and organs were harvested at the following time points: 20 min, 1, 2, and 4 h p.i. The organs were dissected and weighed, the activity was measured with a γ-counter, and the % ID/g was calculated.

[5] = ^68Ga-labeled compounds 30 nM, 45 min, 37°C, specificity by 2-PMPA 500 μM, mean ± SD (n = 3)

tumor-to-kidney ratio [1]: 0.52
Compound: O=C([O-])CN1CCN(CC(=O)[O-])CCN(C(CCC(=O)NCc2ccc(NC(=S)NCC3CCC(C(=O)NC(Cc4ccc5ccccc5c4)C(=O)NCCCCC(NC(=O)NC(CCC(=O)O)C(=O)O)C(=O)O)CC3)cc2)C(=O)O)CCN(CC(=O)[O-])CC1.[68Ga+3] (stereo not shown) [^68Ga-CA029]
Specific lysate (internalization) (C4-2 cells; [5]): 44.3 ± 3.9 %IA/10^6 cells

Compound: O=C([O-])CN1CCN(CC(=O)[O-])CCN(CC(=O)NCC2CCC(C(=O)NC(Cc3ccc4ccccc4c3)C(=O)NCCCCC(NC(=O)NC(CCC(=O)O)C(=O)O)C(=O)O)CC2)CCN(CC(=O)[O-])CC1.[68Ga+3] (stereo not shown) [^68Ga-PSMA-617]
SUV mean Blood pool, mediastinal (prostate cancer patients [2]; 1 h p.i.): 2.5
SUV mean Bone metastasis (prostate cancer patients [2]; 1 h p.i.): 9.4
SUV mean Colon (prostate cancer patients [2]; 1 h p.i.): 3.5
SUV mean Gluteal muscle (prostate cancer patients [2]; 1 h p.i.): 0.7
SUV mean Kidneys (prostate cancer patients [2]; 1 h p.i.): 15.6
SUV mean Lacrimal gland (prostate cancer patients [2]; 1 h p.i.): 4.9
SUV mean Liver (prostate cancer patients [2]; 1 h p.i.): 3.3
SUV mean Lymph node (prostate cancer patients [2]; 1 h p.i.): 7.1
SUV mean Nasal mucosa (prostate cancer patients [2]; 1 h p.i.): 2.9
SUV mean Parotid gland (prostate cancer patients [2]; 1 h p.i.): 10.4
SUV mean Proximal small intestine (prostate cancer patients [2]; 1 h p.i.): 4.7
SUV mean Spleen (prostate cancer patients [2]; 1 h p.i.): 4.3
SUV mean Sublingual gland (prostate cancer patients [2]; 1 h p.i.): 4.6
SUV mean Submandibular gland (prostate cancer patients [2]; 1 h p.i.): 10
SUV mean Blood pool, mediastinal (prostate cancer patients [2]; 3 h p.i.): 2.4
SUV mean Bone metastasis (prostate cancer patients [2]; 3 h p.i.): 6.3
SUV mean Colon (prostate cancer patients [2]; 3 h p.i.): 4.0
SUV mean Gluteal muscle (prostate cancer patients [2]; 3 h p.i.): 0.7
SUV mean Kidneys (prostate cancer patients [2]; 3 h p.i.): 17.0
SUV mean Lacrimal gland (prostate cancer patients [2]; 3 h p.i.): 5.9
SUV mean Liver (prostate cancer patients [2]; 3 h p.i.): 2.7
SUV mean Lymph node (prostate cancer patients [2]; 3 h p.i.): 13.5
SUV mean Nasal mucosa (prostate cancer patients [2]; 3 h p.i.): 3.4
SUV mean Parotid gland (prostate cancer patients [2]; 3 h p.i.): 13.1
SUV mean Proximal small intestine (prostate cancer patients [2]; 3 h p.i.): 5.5
SUV mean Spleen (prostate cancer patients [2]; 3 h p.i.): 3.5
SUV mean Sublingual gland (prostate cancer patients [2]; 3 h p.i.): 4.0
SUV mean Submandibular gland (prostate cancer patients [2]; 3 h p.i.): 12.4
Specific lysate (internalization) (C4-2 cells; [5]): 15.5 ± 3.1 %IA/10^6 cells

Compound: O=C(O)CC[C@H](NC(=O)N[C@@H](CCCCNC(=O)[C@H](Cc1ccc2ccccc2c1)NC(=O)[C@H]1CC[C@H](CNC(=O)CN2CCN(CC(=O)O)CCN(CC(=O)O)CCN(CC(=O)O)CC2)CC1)C(=O)O)C(=O)O [PSMA-617, reference compound]
specific internalization in C4-2 cells (C4-2 cells; Table 2): 15.6 % ID/10^6 cells
Specific cell surface (C4-2 cells; [5]): 45.18 ± 3.61 %IA/10^6cells
Specific lysate (internalization) (C4-2 cells; [5]): 15.55 ± 3.07 %IA/10^6 cells

tumor-to-kidney ratio [1]: 0.33
SUV mean Bone metastasis (prostate cancer patients [3]; first listed bone metastasis, 1 h p.i.): 27.2
SUV mean Bone metastasis (prostate cancer patients [3]; first listed bone metastasis, 3 h p.i.): 37.7
SUV mean Blood pool, mediastinal (prostate cancer patients [3]; 1 h p.i.): 5.6
SUV mean Colon (prostate cancer patients [3]; 1 h p.i.): 4.9
SUV mean Gluteal muscle (prostate cancer patients [3]; 1 h p.i.): 0.8
SUV mean Kidneys (prostate cancer patients [3]; 1 h p.i.): 13.4
SUV mean Lacrimal gland (prostate cancer patients [3]; 1 h p.i.): 7.1
SUV mean Liver (prostate cancer patients [3]; 1 h p.i.): 5.8
SUV mean Nasal mucosa (prostate cancer patients [3]; 1 h p.i.): 3.3
SUV mean Parotid gland (prostate cancer patients [3]; 1 h p.i.): 6.1
SUV mean Proximal small intestine (prostate cancer patients [3]; 1 h p.i.): 4.1
SUV mean Spleen (prostate cancer patients [3]; 1 h p.i.): 7.2
SUV mean Sublingual gland (prostate cancer patients [3]; 1 h p.i.): 4.1
SUV mean Submandibular gland (prostate cancer patients [3]; 1 h p.i.): 8.7
SUV mean Blood pool, mediastinal (prostate cancer patients [3]; 3 h p.i.): 4.5
SUV mean Colon (prostate cancer patients [3]; 3 h p.i.): 4.7
SUV mean Gluteal muscle (prostate cancer patients [3]; 3 h p.i.): 0.7
SUV mean Kidneys (prostate cancer patients [3]; 3 h p.i.): 16.5
SUV mean Lacrimal gland (prostate cancer patients [3]; 3 h p.i.): 9.0
SUV mean Liver (prostate cancer patients [3]; 3 h p.i.): 5.9
SUV mean Nasal mucosa (prostate cancer patients [3]; 3 h p.i.): 3.8
SUV mean Parotid gland (prostate cancer patients [3]; 3 h p.i.): 6.7
SUV mean Proximal small intestine (prostate cancer patients [3]; 3 h p.i.): 5.0
SUV mean Spleen (prostate cancer patients [3]; 3 h p.i.): 6.1
SUV mean Sublingual gland (prostate cancer patients [3]; 3 h p.i.): 4.9
SUV mean Submandibular gland (prostate cancer patients [3]; 3 h p.i.): 11.3
SUV mean Bone metastasis (prostate cancer patients [3]; second listed bone metastasis, 1 h p.i.): 30.9
SUV mean Bone metastasis (prostate cancer patients [3]; second listed bone metastasis, 3 h p.i.): 32.6
SUV mean Bone metastasis (prostate cancer patients [3]; third listed bone metastasis, 1 h p.i.): 31.0
SUV mean Bone metastasis (prostate cancer patients [3]; third listed bone metastasis, 3 h p.i.): 33.1
Organ distribution Blood ([4]; 20 min): 4.33 ± 0.51 % ID/g
Organ distribution Brain ([4]; 20 min): 0.08 ± 0.01 % ID/g
Organ distribution Heart ([4]; 20 min): 1.29 ± 0.30 % ID/g
Organ distribution Kidneys ([4]; 20 min): 63.89 ± 5.72 % ID/g
Organ distribution Liver ([4]; 20 min): 1.04 ± 0.18 % ID/g
Organ distribution Lung ([4]; 20 min): 2.63 ± 0.89 % ID/g
Organ distribution Muscle ([4]; 20 min): 1.39 ± 1.30 % ID/g
Organ distribution Small intestine ([4]; 20 min): 1.00 ± 0.38 % ID/g
Organ distribution Spleen ([4]; 20 min): 8.37 ± 0.47 % ID/g
Organ distribution Tumor ([4]; 20 min): 5.17 ± 1.48 % ID/g
Organ distribution Blood ([4]; 1 h): 3.59 ± 1.52 % ID/g
Organ distribution Brain ([4]; 1 h): 0.08 ± 0.02 % ID/g
Organ distribution Heart ([4]; 1 h): 1.03 ± 0.36 % ID/g
Organ distribution Kidneys ([4]; 1 h): 46.39 ± 23.44 % ID/g
Organ distribution Liver ([4]; 1 h): 1.52 ± 0.61 % ID/g
Organ distribution Lung ([4]; 1 h): 2.74 ± 0.72 % ID/g
Organ distribution Muscle ([4]; 1 h): 0.63 ± 0.21 % ID/g
Organ distribution Small intestine ([4]; 1 h): 0.92 ± 0.37 % ID/g
Organ distribution Spleen ([4]; 1 h): 2.86 ± 1.86 % ID/g
Organ distribution Tumor ([4]; 1 h): 5.36 ± 2.21 % ID/g
Organ distribution Blood ([4]; 2 h): 1.42 ± 0.61 % ID/g
Organ distribution Brain ([4]; 2 h): 0.04 ± 0.02 % ID/g
Organ distribution Heart ([4]; 2 h): 0.40 ± 0.09 % ID/g
Organ distribution Kidneys ([4]; 2 h): 20.19 ± 7.92 % ID/g
Organ distribution Liver ([4]; 2 h): 0.81 ± 0.15 % ID/g
Organ distribution Lung ([4]; 2 h): 1.08 ± 0.42 % ID/g
Organ distribution Muscle ([4]; 2 h): 0.28 ± 0.03 % ID/g
Organ distribution Small intestine ([4]; 2 h): 0.75 ± 0.06 % ID/g
Organ distribution Spleen ([4]; 2 h): 1.39 ± 0.47 % ID/g
Organ distribution Tumor ([4]; 2 h): 4.31 ± 0.30 % ID/g
Organ distribution Blood ([4]; 4 h): 0.39 ± 0.14 % ID/g
Organ distribution Brain ([4]; 4 h): 0.01 ± 0.00 % ID/g
Organ distribution Heart ([4]; 4 h): 0.16 ± 0.05 % ID/g
Organ distribution Kidneys ([4]; 4 h): 6.17 ± 0.82 % ID/g
Organ distribution Liver ([4]; 4 h): 0.50 ± 0.14 % ID/g
Organ distribution Lung ([4]; 4 h): 0.34 ± 0.10 % ID/g
Organ distribution Muscle ([4]; 4 h): 0.17 ± 0.02 % ID/g
Organ distribution Small intestine ([4]; 4 h): 0.21 ± 0.09 % ID/g
Organ distribution Spleen ([4]; 4 h): 0.48 ± 0.09 % ID/g
Organ distribution Tumor ([4]; 4 h): 2.69 ± 0.88 % ID/g
Compound: O=C([O-])CN1CCN(CC(=O)[O-])CCN(CC(=O)O)C(Cc2ccc(NC(=S)NCC3CCC(C(=O)NC(Cc4ccc5ccccc5c4)C(=O)NCCCCC(NC(=O)NC(CCC(=O)O)C(=O)O)C(=O)O)CC3)cc2)CN(CC(=O)[O-])CC1.[68Ga+3] (stereo not shown) [^68Ga-CA030]
Specific lysate (internalization) (C4-2 cells; [5]): 53.8 ± 5.4 %IA/10^6 cells
